In patent US20260116946A1, “NOVEL CD200 FUSION PROTEINS” (DUCENTIS BIOTHERAPEUTICS LIMITED, priority 2022, published 2026):
Entries after “also recorded” stand apart in the source; their conditions may differ.

Legend:
[1] = test system: U937-CD200R cells; test: Cytokine release (IL-6 inhibition) assay, LPS stimulated U937-CD200R cells; assay type: cell-based, human
Procedure: Cytokine production, including IL-6, from these cells can be induced by stimulation with PMA and then LPS.
50,000 U937 cells per well were seeded in 96 well plates and differentiated following incubation for 72 hours with 100 nM PMA. Following differentiation, the PMA containing media was replaced with fresh assay media and incubated for a further 2 hours prior to treatment. CD200-Fc constructs were added with or without Fc block to the cell culture and incubated for 1 hour, then cells were stimulated with 100 ng/ml LPS and incubated for a further 24 hours. Following the final incubation, cell supernatant (diluted 1:10) was collected and assayed for IL-6 secretion by ELISA assay using a commercially available kit.
Cell line construction, cytokine inhibition testing, and cell binding testing were conducted using similar techniques as in Example 3 above.

[2] = test system: U937-CD200R cells; test: Cell binding to U937-CD200R cells by flow cytometry; conditions: 1, 4 and 24 hours at 37° C., anti-human IgG secondary, compared to DS-155
Procedure: U937 cells were re-suspended with a density of 0.1 million cells per test with 50 μL FACS buffer (1×PBS+2% FBS).
Treatment with CD200-Fc proteins (50 μL) was performed starting from 10 μg/mL with 3-fold dilutions up to 10 concentrations with FACS buffer and incubated for 1-hour, 4-hours and 24-hours at 37° C. At the end of each time point, cells were collected and washed. 10 μg/mL of anti-human secondary antibody was added and incubated for 30 minutes at 4° C. Cells were washed post incubation and stained to check viability (1 μL dye per million cells per mL 1×PBS) for 20 minutes at 4° C. Cells were washed and fixed with Fixation buffer (100 μL per test) at 4° C. for 20 minutes. Post incubation, cells were washed and the pellet was re-suspended in FACS buffer (100 μL per test) for data acquisition on the flow cytometer.
For the 24-hour time point, treatment with CD200-Fc protein was performed with cell culture media. Wash step=addition of 200 μL FACS buffer and centrifugation at 1400 RPM.
The binding of ARQ-234 to U937-CD200R cells was compared to a wild type control CD200-Fc (DS-155) at 1, 4 and 24 hrs at human physiological temperature (37° C.) and binding was detected using flow cytometry with an anti-human IgG antibody.

ARQ-234: mutated human CD200-Fc fusion protein: CD200 K130Y, I131Y directly fused to IgG4 Fc S228P, M428L, N434S
inhibition of LPS stimulated IL-6 release ([1]; PMA differentiated U937-CD200R cells, 100 ng/ml LPS, 24 hours, ELISA): able to inhibit LPS stimulated IL-6 secretion in a concentration dependent manner
effect of Fc block on inhibition of IL-6 release ([1]; with versus without Fc block reagent): No significant difference in inhibition
binding to U937-CD200R cells [2]: superior binding of ARQ-234 to CD200R-expressing cells compared to DS-155; also recorded: more potent target engagement compared to DS-155
